Common to all, as to format: cell-based
One assay deals with HCT-116. The assay is described as follows: In vitro cytotoxicity assay (SRB), HCT-116. Conditions: HCT-116 (Human colon cancer), 72 hours of incubation.
The subject of a further assay is HT-29. The assay is described as follows: In vitro cytotoxicity assay (SRB), HT-29. As to conditions: HT-29 (Human colon cancer), 72 hours of incubation.
The test system of a further assay is MCF-7. The assay is described as follows: In vitro cytotoxicity assay (SRB), MCF-7. Conditions: MCF7, MCF-7 (Human breast cancer), 72 hours of incubation.
Another assay relates to DMS-114. The assay is described as follows: In vitro cytotoxicity assay (SRB), DMS-114. Conditions: Homo sapiens, DMS-114 (Small cell lung cancer), 72 hours of incubation.
For a further assay, the system named is PC14PE6/AS2. The assay is described as follows: In vitro cytotoxicity assay (SRB), PC14PE6/AS2. As to conditions: PC14PE6/AS2 (Non-small cell lung cancer), 72 hours of incubation.

pIC50: −log10 of the molar value.

This note sets out measurements from US8168648B2, “Camptothecin derivatives and uses thereof” (Taiwan Liposome Co., Ltd., priority 2009, dated 2012).

In general, pIC50 refers to the negative decadic logarithm of the IC50, by convention in mol/L. As for `CC[C@@]1(OC(=O)[C@@H](C)O)C(=O)OCc2c1cc1n(c2=O)Cc2cc3c(CN(C)C)c(O)ccc3nc2-1` [S,R-topotecan lactate (U1), S,R-topotecan lactate], the pIC50 in the assay with HCT-116 is 7.24; with HT-29 it was 7.25; in the assay with MCF-7, 6.71; with DMS-114, 7.28; in the assay on PC14PE6/AS2, 7.68.

For the compound `CC[C@@]1(OC(=O)[C@H](C)O)C(=O)OCc2c1cc1n(c2=O)Cc2cc3c(CN(C)C)c(O)ccc3nc2-1` [S,S-topotecan lactate (U2), S,S-topotecan lactate], the pIC50 is 7.35 in the assay on HCT-116; 7.25 in the assay on HT-29; 6.84 with MCF-7; 7.59 in the assay with DMS-114; 7.13 in the assay on PC14PE6/AS2.
